{"source": "patent EP0210291A1", "about": "“Platinum complexes of antitumor agents” (AMERICAN CYANAMID COMPANY, priority 1985, dated 1987)", "tested_on": "lymphocytic leukemia P388", "assay": "Lymphocytic leukemia P388 test", "format": "in vivo, BDF/1 mice", "conditions": "for Median Survival: mice with P388 leukemia; for T/Cx100: survival time treated/control", "protocol": "Lymphocytic leukemia P388 test\nThe animals used were BDF/1 mice all of one sex, weighing a minimum of 18 g and all within a 3 g weight range. There were 5 or 6 animals per test group. The tumor transplant was by intraperitoneal injection of 0.5 ml of dilute ascitic fluid containing 10⁶ cells of lymphocytic leukemia P388. The test compounds were administered intraperitoneally on days 1,5 and 9 relative to tumor inoculation, at various doses. The animals were weighed and survivors recorded on a regular basis for 30 days. The median survival time and the ratio of survival time for treated (T)/control (C) animals were calculated. The positive control compound was either 1,4-dihydroxy-5,8-bis[[2-(2-hydroxyethylamino)ethyl]-amino]anthraquinone dihydrochloride or Cisplatin.", "key": {"[1]": {"conditions": "Mus musculus, P388, ip, read-out: T/Cx100"}, "[2]": {"conditions": "dose 0.2 mg/kg intraperitoneally on days 1, 5 and 9"}, "[3]": {"conditions": "dose 0.6 mg/kg intraperitoneally on days 1, 5 and 9, 0.6 mg/kg"}, "[4]": {"conditions": "dose 0.8 mg/kg intraperitoneally on days 1, 5 and 9, 0.8 mg/kg"}, "[5]": {"conditions": "dose 1.2 mg/kg intraperitoneally on days 1, 5 and 9"}, "[6]": {"conditions": "dose 1.25 mg/kg intraperitoneally on days 1, 5 and 9"}, "[7]": {"conditions": "dose 1.5 mg/kg intraperitoneally on days 1, 5 and 9"}, "[8]": {"conditions": "dose 2.5 mg/kg intraperitoneally on days 1, 5 and 9"}, "[9]": {"conditions": "dose 50 mg/kg intraperitoneally on days 1, 5 and 9"}, "[10]": {"conditions": "dose 200 mg/kg intraperitoneally on days 1, 5 and 9"}}, "note": "Where “and” joins values, the source holds several entries; their conditions need not be identical. Equal values may be shown once. Where a name gives a salt, the structure may show the parent alone.", "data": [{"compound": "O=C1c2c(O)ccc(O)c2C(=O)c2c(NCCNCCO)ccc(NCCNCCO)c21", "note": "[1,4-dihydroxy-5,8-bis[[2-(2-hydroxyethylamino)ethyl]-amino]anthraquinone dihydrochloride]", "values": [{"measurement": "response vs control in vivo at 0.025 mg/kg", "setting": "[1]", "result": 110, "unit": "%"}, {"measurement": "response vs control in vivo at 0.1 mg/kg", "setting": "[1]", "result": 136, "unit": "%"}, {"measurement": "response vs control in vivo at 0.4 mg/kg", "setting": "[1]", "result": 153, "unit": "%"}, {"measurement": "response vs control in vivo at 1.6 mg/kg", "setting": "[1]", "result": 212, "unit": "%"}]}, {"compound": "N.N.[Cl][Pt][Cl]", "note": "[Cisplatin]", "values": [{"measurement": "Median Survival", "setting": "[2]", "result": 21, "unit": "days"}, {"measurement": "T/Cx100", "setting": "[2]", "result": 210, "unit": "%"}, {"measurement": "Median Survival", "setting": "[3]", "result": "21 days and 22.5 days"}, {"measurement": "T/Cx100", "setting": "[3]", "result": "196% and 221%"}, {"measurement": "Median Survival", "setting": "[4]", "result": "26.5 days and 23.5 days"}, {"measurement": "T/Cx100", "setting": "[4]", "result": "217% and 235%"}, {"measurement": "Median Survival", "setting": "[5]", "result": 22, "unit": "days"}, {"measurement": "T/Cx100", "setting": "[5]", "result": 206, "unit": "%"}, {"measurement": "Median Survival", "setting": "[6]", "result": 13.5, "unit": "days"}, {"measurement": "T/Cx100", "setting": "[6]", "result": 132, "unit": "%"}, {"measurement": "Median Survival", "setting": "[7]", "result": 22.5, "unit": "days"}, {"measurement": "T/Cx100", "setting": "[7]", "result": 184, "unit": "%"}, {"measurement": "Median Survival", "setting": "[8]", "result": 16, "unit": "days"}, {"measurement": "T/Cx100", "setting": "[8]", "result": 150, "unit": "%"}]}, {"compound": "hydrazinecarboximidamide, compound with platinum chloride (1:1)", "values": [{"measurement": "Median Survival", "setting": "[9]", "result": 20.5, "unit": "days"}, {"measurement": "T/Cx100", "setting": "[9]", "result": 174, "unit": "%"}, {"measurement": "Median Survival", "setting": "[10]", "result": 23, "unit": "days"}, {"measurement": "T/Cx100", "setting": "[10]", "result": 195, "unit": "%"}]}]}
